What all share (assay): MIC and Synergy Index (Kull) of two-component compositions
Assay type in all cases: cell-based

One assay concerns Escherichia coli. The note with it: Escherichia coli; ethyl levulinate alone, or its concentration in the mixture with Sodium benzoate; read-out: MIC (ppm) to inhibit growth: Ethyl levulinate. As for the experimental part: (§1) A wide range of concentrations were tested against Pseudomonas aeruginosa, Staphylococcus aureus, Escherichia coli, and Candda albicans.
(§2) The lowest concentration of each mixture or single compound which prevents an observable level of growth was determined to be the minimum inhibitory concentration (MIC) value.
(§3) Serial dilutions of each mixture or single compound were prepared. Micro-organisms were inoculated into media: Nutrient Broth (bacteria) or Malt Extract Broth (yeast). The final concentrations of micro-organisms in media was approximately 10^5-6 CFU/ml. The inoculated media was introduced to each of the serial dilutions at a 1:1 ratio, and incubated at 30±1° C. for 24-48 hours.
(§4) The MICs for each mixture was compared with the MIC of each single compound alone.
(§5) Synergy was determined using the Kull equation (F. C. Kull et. al., “Mixtures of Quaternary Ammonium Compounds and Long-chain Fatty Acids as Antifungal Agents”, Appl Microbiol. 1961 November; 9(6): 538-541), which calculates a Synergy Index (SI) according the following equation:
(§6) [formula] • wherein • QA=concentration of compound A in ppm, acting alone produced an end point, • Qa=concentration of compound A in ppm, in the mixture, which produced an end point, • QB=concentration of compound B in ppm, acting alone produced an end point, and • Qb=concentration of compound B in ppm, in the mixture, which produced an end point;
(§7) In this study the end point is measured by the MIC.

The next assay concerns Pseudomonas aeruginosa. As for the experimental part:
as §1, §2, §3, §4, §5, §6, §7

Another assay has as its system Staphylococcus aureus. The note with it: Staphylococcus aureus, read-out: MIC (ppm) to inhibit growth: Ethyl levulinate. As to the method:
as §1, §2, §3, §4, §5, §6, §7

In another assay the test system is Candida albicans. As for the experimental part:
as §1, §2, §3, §4, §7

The mark [1] stands for this setting: ethyl levulinate alone, or its concentration in the mixture with Sodium Pyrithione.
Where [2] appears, read: ethyl levulinate alone, or its concentration in the mixture with Lactic Acid.
Setting [3] is: ethyl levulinate alone, or its concentration in the mixture with Potassium Sorbate.

Molecules are shown by their SMILES. Where two headings read alike, the source gives them in different places.

For `CCOC(=O)CCC(C)=O` [Ethyl levulinate, ethyl levulinate], the MIC (in general, the lowest concentration that inhibits growth of the organism) with Escherichia coli came to 25 mg/mL; with Pseudomonas aeruginosa (Pseudomonas aeruginosa, ethyl levulinate alone, or its concentration in the mixture with ADBAC, read-out: MIC (ppm) to inhibit growth: Ethyl levulinate) it was 12.5 mg/mL; with Staphylococcus aureus (setting [2]), 12.5 mg/mL; in the assay on Staphylococcus aureus (setting [3]) it was 12.5 mg/mL; with Staphylococcus aureus (ethyl levulinate alone, or its concentration in the mixture with Sodium benzoate), 25 mg/mL; in the assay on Candida albicans (Candida albicans, ethyl levulinate alone, or its concentration in the mixture with Sodium benzoate, read-out: MIC (ppm) to inhibit growth: Ethyl levulinate), 25 mg/mL. For the same compound, the “MIC (ppm) to inhibit growth: Ethyl levulinate” value in the assay with Pseudomonas aeruginosa (setting [1]) was 12500 ppm; in the assay with Candida albicans (ethyl levulinate alone, or its concentration in the mixture with ADBAC), 25000 ppm; in the assay with Candida albicans (setting [2]), 25000 ppm; with Candida albicans (setting [3]), 25000 ppm; in the assay with Candida albicans (setting [1]), 25000 ppm.

Values taken from patent US20250040543A1, “Preservative Composition” (ARXADA AG, priority 2021, published 2025).
